According to US20250066328A1, “PARP7 INHIBITORS” (Gilead Sciences, Inc., priority 2023, published 2025):

Test system: STAT1 (phosphorylated at Tyr701) in NCI-H1373 cells
Test: Phospho-STAT1 (Tyr701) LANCE Ultra TR-FRET detection assay in NCI-H1373 cells
Type: cell-based
Conditions: Homo sapiens, NCI-H1373, 48 h, 48 hours incubation, induction of pSTAT1, normalized to 10 uM positive control and DMSO, 4-parameter fit, read-out: NH1373 pSTAT1 EC50
Experimental: Phospho-STAT1 (Tyr701 LANCE Ultra TR-FRET Detection Assay
LANCE Ultra phospho-STAT1 (Tyr701) kits are designed for the detection of phosphorylated STAT1 in cell lysates using a simple, homogeneous LANCE Ultra sandwich assay (Cat. #TRF4028M). This assay is intended for assessing compound induction of endogenous levels of cellular STAT1 (phosphorylated at Tyr701) in NCI-H1373 cells. The NCI-H1373 cells are cultured in RPMI 1640 media containing 10% heat inactivated FBS, GlutaMAX, 1% Penicillin-Streptomycin. An Echo acoustic liquid handler is used to transfer 60 nanoliters of compound dilutions using the Echo Qualified, 384-well polypropylene microplate clear flat bottom source plates into a Greiner (#781080) cell culture microplate. NCI-H1373 cells are seeded into these compound-spotted culture plates at 30,000 cells/well in a 60 uL volume in growth media. The plates are incubated in a 5% CO2 humidified incubator at 37° C. for 48 hours. […] Briefly, […] of supplemented lysis buffer is added to each well and allowed to shake for 1 hour at 400 rpm. Next, 5 ul of remixed antibody solutions (vol/vol) prepared in detection buffer are added to each well and allowed to incubate at room temperature overnight. After spinning the plate down at 300 rpm for 1 min, the plate is read on an EnVision plate reader set up for Eu^3+ Cryptate and fluorescence emission is measured at two different wavelengths (665 nm and 620 nm). The HTRF ratio is then calculated ([…]) for each well to determine the amount of pSTAT1 in the cell lysate, and the data is then normalized to 10 uM (S)-5-((1-(3-oxo-3-(4-(5-(trifluoromethyl)pyrimidin-2-yl)piperazin-1-yl)propoxy)propan-2-yl)amino)-4-(trifluoromethyl)pyridazin-3(2H)-one positive and DMSO negative controls. The values were then plotted as a function of compound concentration and a 4-parameter fit was applied to derive the EC50 values.

| Compound | EC50 [nM] |
| --- | --- |
| C[C@@H](C[C@@H](F)Cn1ccc2cc(-c3cc4c(cn3)C(F)(F)CC4)c(F)cc2c1=O)Nc1cn[nH]c(=O)c1C(F)(F)F [Example 91] | 1.69 |
| C[C@@H](C[C@@H](F)Cn1ccc2cc(-c3ncc([C@@H](F)CF)cn3)c(F)cc2c1=O)Nc1cn[nH]c(=O)c1C(F)(F)F [Example 92] | 1.89 |
| C[C@@H](C[C@@H](F)Cn1ccc2cc(-c3ncc([C@H](F)CF)cn3)c(F)cc2c1=O)Nc1cn[nH]c(=O)c1C(F)(F)F [Example 93] | 1000 |
| C[C@@H](C[C@@H](F)Cn1ccc2cc(-c3ncc(C(F)CF)cn3)c(F)cc2c1=O)Nc1cn[nH]c(=O)c1C(F)(F)F (stereo partly drawn) [Example 94] | 4.58 |
| C[C@@H](C[C@@H](F)Cn1ccc2cc(-c3ncc(C4CC4)cn3)c(F)cc2c1=O)Nc1cn[nH]c(=O)c1C(F)(F)F [Example 95] | 1.36 |
| C[C@@H](C[C@@H](F)Cn1ccc2cc(-c3ncc(C(C)(C)F)cn3)c(F)cc2c1=O)Nc1cn[nH]c(=O)c1C(F)(F)F [Example 96] | 1.61 |
| C[C@@H](C[C@@H](F)Cn1ccc2cc(-c3ncc(OC(F)F)cn3)c(F)cc2c1=O)Nc1cn[nH]c(=O)c1C(F)(F)F [Example 97] | 0.97 |
| C[C@@H](C[C@@H](F)Cn1ccc2cc(-c3ncc(C(C)(F)F)cn3)c(F)c(F)c2c1=O)Nc1cn[nH]c(=O)c1C(F)(F)F [Example 98] | 0.97 |
| COc1cnc(-c2cc3ccn(C[C@H](F)C[C@H](C)Nc4cn[nH]c(=O)c4C(F)(F)F)c(=O)c3c(F)c2F)nc1 [Example 99] | 1.06 |
| C[C@@H](C[C@@H](F)Cn1ccc2cc(-c3ncc(C(F)F)cn3)c(F)c(F)c2c1=O)Nc1cn[nH]c(=O)c1C(F)(F)F [Example 100] | 1.05 |
| C[C@@H](C[C@@H](F)Cn1ccc2cc(-c3ncc(C(F)F)c(N)n3)c(F)c(F)c2c1=O)Nc1cn[nH]c(=O)c1C(F)(F)F [Example 101] | 4.36 |
| C[C@@H](C[C@@H](F)Cn1ccc2cc(-c3ncco3)c(F)cc2c1=O)Nc1cn[nH]c(=O)c1C(F)(F)F [Example 102] | 170 |
| C[C@@H](C[C@@H](F)Cn1ccc2cc(-c3nccs3)c(F)cc2c1=O)Nc1cn[nH]c(=O)c1C(F)(F)F [Example 103] | 138 |
| C[C@@H](C[C@@H](F)Cn1ccc2cc(-c3cnccn3)c(F)cc2c1=O)Nc1cn[nH]c(=O)c1C(F)(F)F [Example 104] | 36.4 |
| C[C@@H](C[C@@H](F)Cn1cnc2cc(-c3ncc(C(C)(F)F)cn3)c(F)cc2c1=O)Nc1cn[nH]c(=O)c1C(F)(F)F [Example 107] | 2.52 |
| C[C@@H](C[C@@H](F)Cn1ccc2cc(-c3ncc(F)cn3)c(F)cc2c1=O)Nc1cn[nH]c(=O)c1C(F)(F)F [Example 108] | 2.9 |
| C[C@@H](C[C@@H](F)Cn1ccc2cc(-c3ncccn3)c(F)cc2c1=O)Nc1cn[nH]c(=O)c1C(F)(F)F [Example 109] | 5.63 |
| Cc1cnc(-c2cc3ccn(C[C@H](F)C[C@H](C)Nc4cn[nH]c(=O)c4C(F)(F)F)c(=O)c3cc2F)nc1 [Example 110] | 1.11 |

| Compound | EC50 [nM] |
| --- | --- |
| CC(O)c1cnc(-c2cc3ccn(C[C@H](F)C[C@H](C)Nc4cn[nH]c(=O)c4C(F)(F)F)c(=O)c3cc2F)nc1 (stereo partly drawn) [Example 111] | 4.64 |
| C[C@@H](C[C@@H](F)Cn1ccc2cc(-c3ncc4c(n3)NCCO4)c(F)cc2c1=O)Nc1cn[nH]c(=O)c1C(F)(F)F [Example 113] | 1.94 |
| [2H]C([2H])([2H])Oc1cnc(-c2cc3ncn(C[C@H](F)C[C@H](C)Nc4cn[nH]c(=O)c4C(F)(F)F)c(=O)c3cc2F)nc1 [Example 115] | 7.27 |
| CC(C[C@H](C)Nc1cn[nH]c(=O)c1C(F)(F)F)Cn1ccc2cc(-c3ncc(C(F)(F)F)cn3)c(F)cc2c1=O (stereo partly drawn) [Example 116, 7-fluoro-2-((4S)-2-methyl-4-((6-oxo-5-(trifluoromethyl)-1,6-dihydropyridazin-4-yl)amino)pentyl)-6-(5-(trifluoromethyl)pyrimidin-2-yl)isoquinolin-1(2H)-one] | 89.9 |
| C[C@@H](C[C@@H](F)CN1Cc2cc(-c3ncc(C(F)(F)F)cn3)c(F)cc2C1=O)Nc1cn[nH]c(=O)c1C(F)(F)F [Example 117, 6-fluoro-2-[(2R,4S)-2-fluoro-4-[[6-oxo-5-(trifluoromethyl)-1H-pyridazin-4-yl]amino]pentyl]-5-[5-(trifluoromethyl)pyrimidin-2-yl]isoindolin-1-one] | 11.8 |
| CC[C@@H](C[C@@H](F)Cn1ccc2cc(-c3ncc(C(F)(F)F)cn3)c(F)cc2c1=O)Nc1cn[nH]c(=O)c1C(F)(F)F [Example 118, 7-fluoro-2-((2R,4S)-2-fluoro-4-((6-oxo-5-(trifluoromethyl)-1,6-dihydropyridazin-4-yl)amino)hexyl)-6-(5-(trifluoromethyl)pyrimidin-2-yl)isoquinolin-1(2H)-one] | 2.18 |
| O=c1[nH]ncc(O[C@@H](CCCn2ccc3cc(-c4ncc(C(F)(F)F)cn4)c(F)cc3c2=O)COC(F)F)c1C(F)(F)F [Example 120] | 1000 |
| CC(C)(O)c1cnc(-c2cc3ccn(C[C@H](F)C[C@H](COC(F)F)Oc4cn[nH]c(=O)c4C(F)(F)F)c(=O)c3cc2F)nc1 [Example 122] | 1.97 |
| O=c1[nH]ncc(N[C@@H](CO)C[C@@H](F)Cn2ccc3cc(-c4ncc(C(F)(F)F)cn4)c(F)cc3c2=O)c1C(F)(F)F [Example 123, 7-fluoro-2-((2R,4R)-2-fluoro-5-hydroxy-4-((6-oxo-5-(trifluoromethyl)-1,6-dihydropyridazin-4-yl)amino)pentyl)-6-(5-(trifluoromethyl)pyrimidin-2-yl)isoquinolin-1(2H)-one] | 16.2 |
| O=c1[nH]ncc(N[C@@H](CO)C[C@@H](F)Cn2ccc3cc(-c4ncc(Cl)cn4)c(F)cc3c2=O)c1C(F)(F)F [Example 124] | 11.1 |
| O=c1[nH]ncc(N[C@@H](CO)C[C@@H](F)Cn2ccc3cc(-c4ncc(C(F)F)cn4)c(F)cc3c2=O)c1C(F)(F)F [Example 125] | 41.2 |
| O=c1[nH]ncc(NC(COC(F)F)C[C@@H](F)Cn2ccc3cc(-c4ncc(C(F)(F)F)cn4)c(F)cc3c2=O)c1C(F)(F)F (stereo partly drawn) [Example 126, 2-[(2R)-5-(difluoromethoxy)-2-fluoro-4-[[6-oxo-5-(trifluoromethyl)-1H-pyridazin-4-yl]amino]pentyl]-7-fluoro-6-[5-(trifluoromethyl)pyrimidin-2-yl]isoquinolin-1-one] | 3.3 |
| Nc1nc(-c2cc3ccn(CC(F)CC(COC(F)F)Nc4cn[nH]c(=O)c4C(F)(F)F)c(=O)c3cc2F)ncc1C(F)F (stereo not drawn) [Example 127] | 6.55 |
| COc1cnc(-c2cc3ccn(CC(F)CC(COC(F)F)Nc4cn[nH]c(=O)c4C(F)(F)F)c(=O)c3cc2F)nc1 (stereo not drawn) [Example 128] | 3.08 |
| CC(C)(O)c1cnc(-c2cc3ccn(CC(F)CC(COC(F)F)Nc4cn[nH]c(=O)c4C(F)(F)F)c(=O)c3cc2F)nc1 (stereo not drawn) [Example 129] | 8.24 |
| O=c1[nH]ncc(NC(COC(F)F)CC(F)Cn2ccc3cc(-c4ncc(C(F)F)cn4)c(F)cc3c2=O)c1C(F)(F)F (stereo not drawn) [Example 130] | 2.24 |
| CC(F)(F)c1cnc(-c2cc3ccn(CC(F)CC(COC(F)F)Nc4cn[nH]c(=O)c4C(F)(F)F)c(=O)c3cc2F)nc1 (stereo not drawn) [Example 131] | 5.34 |
| C[C@@H](C[C@@H](F)CN1CCc2cc(-c3ncc(C(F)(F)F)cn3)c(F)cc2C1=O)Nc1cn[nH]c(=O)c1C(F)(F)F [Example 132, 7-fluoro-2-[(2R,4S)-2-fluoro-4-[[6-oxo-5-(trifluoromethyl)-1H-pyridazin-4-yl]amino]pentyl]-6-[5-(trifluoromethyl)pyrimidin-2-yl]-3,4-dihydroisoquinolin-1-one] | 2.7 |
